In patent US20140193827A1 (TEVA PHARMACEUTICAL INDUSTRIES, LTD., priority 2013, published 2014):

Tested on: GA-primed murine splenocytes
Test: ANOVA-based pattern identification method
Assay type: cell-based, mouse
Excerpt: We sought to identify probes matching specific patterns of expression across experimental conditions using a technique that referred to as the ANOVA-based Pattern Identification Method.
To carry out the analysis in a general manner, we computed the 6 p-values required to do pairwise comparisons of all 4 conditions for all probes using the ANOVA1 function in MATLAB. We then identified sets of probes matching the desired pattern. In the example above, probes were identified as being only affected by PG if their 6 pairwise comparison pvalues matched the following pattern (pGA-PG<0.05, pPG-reference standard<0.05, pPG-Medium<0.05, pGAMedium>0.05, pGA-reference standard>0.05, preference standard-Medium>0.05).

In the case of glatiramer acetate [GA], the FYB expression level (UP IN GA AND REF ONLY) was 8.25, the GNL3L expression level (UP IN GA AND REF ONLY) was 7.689 and the GPC3 expression level (UP IN GA AND REF ONLY) was 5.696. It also gave a GPI1 expression level (UP IN GA AND REF ONLY) of 11.7829, a GREM2 expression level (UP IN GA AND REF ONLY) of 6.036 and a GTF3C5 expression level (UP IN GA AND REF ONLY) of 5.928. It also gave a GTL7 expression level (UP IN GA AND REF ONLY) of 7.434, an H2-T23 expression level (UP IN GA AND REF ONLY) of 10.78 and an H2AFZ expression level (UP IN GA AND REF ONLY) of 11.93. For the same substance, the HEATR3 expression level (UP IN GA AND REF ONLY) was 5.853, the HIST1H2AG expression level (UP IN GA AND REF ONLY) was 10.07 and the HIST1H2AK expression level (UP IN GA AND REF ONLY) was 12.78. The HNRNPK expression level (UP IN GA AND REF ONLY) was 10.05, the IL1F10 expression level (UP IN GA AND REF ONLY) was 6.065 and the INPP4B expression level (UP IN GA AND REF ONLY) was 6.314. For the same substance, the KLRA1 expression level (UP IN GA AND REF ONLY) was 5.834, the KRT25 expression level (UP IN GA AND REF ONLY) was 5.8 and the LOC235279 expression level (UP IN GA AND REF ONLY) was 5.818. For the same substance, the LOC244219 expression level (UP IN GA AND REF ONLY) was 5.958, the LOC331243 expression level (UP IN GA AND REF ONLY) was 5.641 and the LOC380707 expression level (UP IN GA AND REF ONLY) was 10.02. The LOC381093 expression level (UP IN GA AND REF ONLY) was 5.885, the LOC383306 expression level (UP IN GA AND REF ONLY) was 5.921 and the LOC383433 expression level (UP IN GA AND REF ONLY) was 5.667. The LOC383706 expression level (UP IN GA AND REF ONLY) was 8.36, the LOC384585 expression level (UP IN GA AND REF ONLY) was 5.764 and the LOC384990 expression level (UP IN GA AND REF ONLY) was 5.909. The LOC386161 expression level (UP IN GA AND REF ONLY) was 5.652, the LOC628101 expression level (UP IN GA AND REF ONLY) was 6.566 and the LOC667005 expression level (UP IN GA AND REF ONLY) was 7.02. For the same substance, the LOC100040244 expression level (UP IN GA AND REF ONLY) was 7.257, the LOC100040854 expression level (UP IN GA AND REF ONLY) was 5.619 and the LOC100041450 expression level (UP IN GA AND REF ONLY) was 6.953. The LOC100043391 expression level (UP IN GA AND REF ONLY) was 14.29, the LOC100044190 expression level (UP IN GA AND REF ONLY) was 10.67 and the LOC100046320 expression level (UP IN GA AND REF ONLY) was 7.704. It also gave an LOC100047009 expression level (UP IN GA AND REF ONLY) of 6.027, an LOC100048816 expression level (UP IN GA AND REF ONLY) of 5.928 and an LSG1 expression level (UP IN GA AND REF ONLY) of 7.278. It also gave an MAD2L1BP expression level (UP IN GA AND REF ONLY) of 9.971, an MIER2 expression level (UP IN GA AND REF ONLY) of 5.885 and an MX2 expression level (UP IN GA AND REF ONLY) of 8.083. For the same substance, the MYNN expression level (UP IN GA AND REF ONLY) was 5.819, the NCDN expression level (UP IN GA AND REF ONLY) was 5.87 and the NEO1 expression level (UP IN GA AND REF ONLY) was 6.159. It also gave an NPC2 expression level (UP IN GA AND REF ONLY) of 9.575, an NUDCD2 expression level (UP IN GA AND REF ONLY) of 7.102 and an OLFR701 expression level (UP IN GA AND REF ONLY) of 5.738. The OS9 expression level (UP IN GA AND REF ONLY) was 9.621, the OTTMUSG00000005523 expression level (UP IN GA AND REF ONLY) was 6.96 and the PARP14 expression level (UP IN GA AND REF ONLY) was 11.13. For the same substance, the PCDHGC5 expression level (UP IN GA AND REF ONLY) was 6.075, the PDIA2 expression level (UP IN GA AND REF ONLY) was 5.846 and the PDLIM1 expression level (UP IN GA AND REF ONLY) was 9.528. The PIBF1 expression level (UP IN GA AND REF ONLY) was 6.957, the PIGN expression level (UP IN GA AND REF ONLY) was 5.83 and the PJA1 expression level (UP IN GA AND REF ONLY) was 6.736. It also gave a PK3 expression level (UP IN GA AND REF ONLY) of 6.316, a PLEKHF2 expression level (UP IN GA AND REF ONLY) of 8.247 and a PLXNC1 expression level (UP IN GA AND REF ONLY) of 6.506. It also gave a PPP1CB expression level (UP IN GA AND REF ONLY) of 7.717, a PPP2R5C expression level (UP IN GA AND REF ONLY) of 10.04 and a PSEN2 expression level (UP IN GA AND REF ONLY) of 5.995. It also gave a PTPN1 expression level (UP IN GA AND REF ONLY) of 9.292, a PUM2 expression level (UP IN GA AND REF ONLY) of 8.717 and an RAB6 expression level (UP IN GA AND REF ONLY) of 7.499. For the same substance, the RAB33A expression level (UP IN GA AND REF ONLY) was 6.093, the RBM14 expression level (UP IN GA AND REF ONLY) was 6.157 and the RN185 expression level (UP IN GA AND REF ONLY) was 9.959. For the same substance, the RNF8 expression level (UP IN GA AND REF ONLY) was 6.852, the RNF19A expression level (UP IN GA AND REF ONLY) was 5.962 and the RNGTT expression level (UP IN GA AND REF ONLY) was 6.302. The RPL37 expression level (UP IN GA AND REF ONLY) was 5.765, the SAMHD1 expression level (UP IN GA AND REF ONLY) was 12.05 and the SCL0002368.1_75 expression level (UP IN GA AND REF ONLY) was 9.053. It also gave an SELP expression level (UP IN GA AND REF ONLY) of 6.569, an SLC30A8 expression level (UP IN GA AND REF ONLY) of 5.652 and an SLCO3A1 expression level (UP IN GA AND REF ONLY) of 6.151. For the same substance, the SLFN9 expression level (UP IN GA AND REF ONLY) was 5.598, the SPNB2 expression level (UP IN GA AND REF ONLY) was 5.753 and the STAT3 expression level (UP IN GA AND REF ONLY) was 11.07. The STIL expression level (UP IN GA AND REF ONLY) was 5.727, the TELO2 expression level (UP IN GA AND REF ONLY) was 5.873 and the TMPO expression level (UP IN GA AND REF ONLY) was 8.63. It also gave a TNP2 expression level (UP IN GA AND REF ONLY) of 5.959, a TOP2A expression level (UP IN GA AND REF ONLY) of 7.085 and a TOR1A expression level (UP IN GA AND REF ONLY) of 7.512. For the same substance, the TPM4 expression level (UP IN GA AND REF ONLY) was 7.481, the TRAPPC2 expression level (UP IN GA AND REF ONLY) was 5.833 and the TRMT2A expression level (UP IN GA AND REF ONLY) was 6.694. For the same substance, the TSPAN14 expression level (UP IN GA AND REF ONLY) was 9.848, the TTLL4 expression level (UP IN GA AND REF ONLY) was 5.973 and the UBE2Z expression level (UP IN GA AND REF ONLY) was 6.169. For the same substance, the USF1 expression level (UP IN GA AND REF ONLY) was 6.915, the V1RD18 expression level (UP IN GA AND REF ONLY) was 5.691 and the VMN2R81 expression level (UP IN GA AND REF ONLY) was 5.992. The VMN2R89 expression level (UP IN GA AND REF ONLY) was 6.242, the VPS37B expression level (UP IN GA AND REF ONLY) was 10.56 and the WAPAL expression level (UP IN GA AND REF ONLY) was 6.423. For the same substance, the WDR45L expression level (UP IN GA AND REF ONLY) was 7.365, the ZDHHC21 expression level (UP IN GA AND REF ONLY) was 8.562 and the ZFP277 expression level (UP IN GA AND REF ONLY) was 9.951. For the same substance, the ZFP281 expression level (UP IN GA AND REF ONLY) was 8.974, the ZFP800 expression level (UP IN GA AND REF ONLY) was 6.783 and the ZNF24 expression level (UP IN GA AND REF ONLY) was 6.171. The ZWILCH expression level (UP IN GA AND REF ONLY) was 6.29, the ZZZ3 expression level (UP IN GA AND REF ONLY) was 6.181 and the 5YNGR1 expression (UP IN generic ONLY) was 5.954. For the same substance, the 1200003C05RIK expression (UP IN generic ONLY) was 9.103, the 1200011M11RIK expression (UP IN generic ONLY) was 6.322 and the 1700021P22RIK expression (UP IN generic ONLY) was 6.037. It also gave a 1700029G01RIK expression (UP IN generic ONLY) of 6.738, a 1700063H04RIK expression (UP IN generic ONLY) of 5.82 and a 2210010L05RIK expression (UP IN generic ONLY) of 5.598. For the same substance, the 2310046A06RIK expression (UP IN generic ONLY) was 5.634, the 2310051M13RIK expression (UP IN generic ONLY) was 5.609 and the 2600005J22RIK expression (UP IN generic ONLY) was 5.732. For the same substance, the 2610209A20RIK expression (UP IN generic ONLY) was 6.008, the 2810046M22RIK expression (UP IN generic ONLY) was 5.995 and the 2810453I06RIK expression (UP IN generic ONLY) was 8.506. For the same substance, the 2900090M10RIK expression (UP IN generic ONLY) was 5.695, the 3110070M22RIK expression (UP IN generic ONLY) was 6.16 and the 4930430K04RIK expression (UP IN generic ONLY) was 5.499. The 4930432K21RIK expression (UP IN generic ONLY) was 6.593, the 4930471I01RIK expression (UP IN generic ONLY) was 5.854 and the 4930481A15RIK expression (UP IN generic ONLY) was 5.879. For the same substance, the 4930543G11RIK expression (UP IN generic ONLY) was 5.775.
